Measurements published in patent US8999296B2, “Method of detecting bladder cancer” (Kochi University, priority 2008, dated 2015).

Key:
[1] = test system: bladder cancer; experiment: Intraoperative photodynamic diagnosis of bladder cancer with ALA-HCl (video camera system and VLD-M1 fluorescence intensity), Example 1; assay type: in vivo, human; details: for Fluorescence intensity (relative intensity) by VLD-M1: irradiation at 405 nm, PpIX fluorescence at 635 nm, one subject
Experimental: Intraoperative diagnosis using 5-aminolevulinic acid hydrochloride (ALA-HCl) was carried out for two subjects who are in the almost same progression stage of bladder cancer. The subjects were administered ALA-HCl respectively by bladder instillation and by oral intake. Bladder instillation was conducted on the day of operation by dissolving 1.5 g of ALA-HCl in 50 mL of a 8.4% sodium bicarbonate (sodium hydrogen carbonate: NaHCO3) to adjust pH (median pH of 8.0 (pH 7.8-8.2)), filtrating the dissolved ALA-HCl solution with a 0.22 μm filter, and then injecting this dissolved solution (50 mL) into the bladder of a subject. Retention time in the bladder was set for 120-150 min ([…]) and ALA was eliminated just prior to the operation. On the other hand, oral intake was carried out by dissolving ALA (maximum of 1 g) in 50 mL of a 5% dextrose solution to 20 mg/kg, and the ALA dissolved solution (50 mL) was orally administered to the other subject in the morning (4 hours before commencement of the operation) without giving breakfast. Diagnosis was conducted based on the diagnostic imaging and fluorescent intensity with the use of a video camera system: Endovision TELECAM SL/IPM-PPDSystem (KARL STORZ) and VLD-M1 (M&M). The video camera system was inserted via the urethra and the red light part was observed after irradiating a blue fluorescence at 380-440 nm. Further, VLD-M1 was inserted and fluorescence intensity (relative intensity) at the red light part was observed after irradiating a blue fluorescence at 405 nm.
In addition, at 635 nm which is the […] for protoporphyrin IX (PpIX), it was confirmed as shown in Table 1 that the fluorescence intensity was higher in the case of oral intake than in the case of bladder instillation.

[2] = test system: bladder cancer; experiment: Fluorescence diagnosis in bladder cancer patients grouped by disease stage (pTis, pTa, pT1, pT2, pT3), Example 2; assay type: in vivo, human; details: 50 bladder cancer patients, stages pTis, dosing as in Example 1
Experimental: ALA was injected into the bladder or administered orally similarly to Example 1 to bladder cancer patients who had been grouped according to the disease stages based on the intramural invasion depth of the primary tumor: 6 cases of pTis (intraepithelial cancer), 27 cases of pTa (without invasion), 9 cases of pT1 (with invasion to submucosal connective tissue), 6 cases of pT2 (with muscle invasion), 2 cases of pT3 (with invasion to pericystic adipose tissue) (50 cases for total number of patients). […] This confirmed that oral administration is effective in a diagnosis method for bladder cancer at every disease stage.

SMILES: Cl.NCC(=O)CCC(=O)O [ALA, 5-aminolevulinic acid hydrochloride]
- Fluorescence intensity (relative intensity) by VLD-M1 ([1]; bladder instillation of ALA (1.5 g ALA-HCl in 50 mL 8.4% NaHCO3)): 20153
- Fluorescence intensity (relative intensity) by VLD-M1 ([1]; oral intake of ALA (20 mg/kg, 4 hours before operation)): 48623
- Identification of the site of bladder cancer by diagnostic imaging (FIGS. 1 and 2) ([1]; oral intake versus bladder instillation, irradiation at 380-440 nm, red light part observed): more remarkably identified in the case of oral intake than in the case of bladder instillation
- Fluorescence, oral administration versus injection into the bladder (FIGS. 3-6) [2]: fluorescence was more intensive when ALA was orally administered than when injected into the bladder
